Test results as given in patent US20080227644A1, “Use of abscisic acid to control fruiting” (priority 2007, published 2008).

What was measured:
Type in all cases: in vivo
[1] = tested on: PF-27 peach trees; test: Foliar spray of peach tree limbs at shuck split stage, fruit retention; conditions: 1000 ppm, sprayed to runoff
Description: Limbs of PF-27 peach trees with fruit at the shuck split stage were flagged; the number of fruit distal to the flagging was counted. The limbs were sprayed to runoff with either water or 1000 ppm abscisic acid (S-ABA; ABA; S-(+)-abscisic acid; +-ABA, (+)-(S)-cis,trans-abscisic acid,(+)-(S)-cis,trans-ABA; S-ABA; (S)-5-(1-hydroxy-2,6,6,-trimethyl-4-oxo-2-cyclohexen-1-yl)-3-methyl-(2Z,4E)-pentadienoic acid; CAS no. 21293-29-8). After 8 and 19 days the fruit were re-counted and the percent fruit retention was determined. Limbs treated with 1000 ppm ABA retained less fruit than limbs treated with water 19 days following treatment (Table 1).

[2] = tested on: Cacaks Schone plum; test: Spray of plum trees at fruitlet set stage, fruit set and fruit size; conditions: 600 ppm at fruitlet set stage
Protocol: (§1) Trees of Cacaks Schone plum and Katinka plum were sprayed with 600 ppm ABA at the fruitlet set stage or left untreated. The number of fruit per flower was determined after the normal fruit drop period had ended. At harvest the weight per 100 fruits was measured for both the ABA treated and the untreated trees. Spraying Cacaks Schone or Katinka plum trees with ABA at the fruitlet set stage reduced the number of fruits per flower and increased the average fruit weight compared to untreated trees (Table 2).

[3] = tested on: Katinka plum; test: as above; conditions: 600 ppm at fruitlet set stage
Protocol: as §1

[4] = tested on: Cacaks plum; test: Spray of plum trees at petal fall (BBCH stage 69), fruit set, yield, fruit weight; conditions: at harvest
Protocol: (§2) Trees of Cacaks plum were sprayed at petal fall (BBCH stage 69) with 500 ppm or 1000 ppm ABA or left untreated (Table 3). Percent fruit set, average yield and average fruit weight were determined at harvest. Spraying Cacaks plum trees with ABA reduced fruit set percentage and yield per tree and increased average fruit weight (Table 3).

[5] = tested on: Katinka plum; test: as above; conditions: at harvest
Protocol: as §2, with “Katinka” for “Cacaks”, “4).” for “3).”

[6] = tested on: Elegant Lady Peach; test: Spray of trees at petal fall (BBCH stage 69), fruit set; conditions: 1000 ppm at petal fall; at harvest
Protocol: (§3) Trees of Lady Elana Apricot and Elegant Lady Peach were sprayed at petal fall (BBCH stage 69) with 1000 ppm ABA or left untreated (Table 5). Percent fruit set was determined at harvest. Spraying Lady Elana Apricot and Elegant Lady Peach trees with ABA reduced percent fruit set (Table 5).

[7] = tested on: Lady Elana Apricot; test: as above; conditions: 1000 ppm at petal fall; at harvest
Protocol: as §3

[8] = tested on: European seedless cucumber (var. Flamingo) plants; test: Foliar spray of greenhouse cucumber plants, fruit abortion; conditions: 100 ppm, sprayed to drip at 20 node growth stage
Protocol: European seedless cucumber (var. Flamingo) plants were grown in a greenhouse. At the 20 node growth stage the plants were sprayed to drip with ABA (100 ppm) solution or left unsprayed (control). ABA treated plants had twice the rate of fruit abortion compared to the control plants (Table 6).

In the case of “(S)-5-(1-hydroxy-2,6,6,-trimethyl-4-oxo-2-cyclohexen-1-yl)-3-methyl-(2Z,4E)-pentadienoic acid [ABA]”, the percent fruit retention ([1]; 8 days after treatment) is reported as 97%, the percent fruit retention ([1]; 19 days after treatment) is reported as 69% and the Fruit/flower ([2]; after normal fruit drop period) is reported as 0.09. It also gave a 100 fruit weight ([2]; at harvest) of 2.23 kg, a Fruit/flower ([3]; after normal fruit drop period) of 0.45 and a 100 fruit weight ([3]; at harvest) of 2.35 kg. For the same substance, the “% Fruit set” value ([4]; 500 ppm at petal fall) was 20%, the Fruit weight ([4]; 500 ppm at petal fall) was 14.5 g and the Yield ([4]; 500 ppm at petal fall) was 8.0 kg/tree. For the same substance, the “% Fruit set” value ([4]; 1000 ppm at petal fall) was 11%, the Fruit weight ([4]; 1000 ppm at petal fall) was 14.6 g and the Yield ([4]; 1000 ppm at petal fall) was 7.0 kg/tree. The “% Fruit set” value ([5]; 500 ppm at petal fall) was 28%, the Fruit weight ([5]; 500 ppm at petal fall) was 26.2 g and the Yield ([5]; 500 ppm at petal fall) was 4.2 kg/tree. For the same substance, the “% Fruit set” value ([5]; 1000 ppm at petal fall) was 21%, the Fruit weight ([5]; 1000 ppm at petal fall) was 28.0 g and the Yield ([5]; 1000 ppm at petal fall) was 4.4 kg/tree. The “% Fruit set” value [6] was 36%, the “% Fruit set” value [7] was 33% and the “Percentage of basal 18 cucumber fruits per plant that aborted” value [8] was 68%. The “rate of fruit abortion compared to the control plants” value [8] was “twice”.
